# Entries after “also recorded” stand apart in the source; their conditions may differ.
# How the values were obtained:
# Antares luciferase = molecular target: T1, Antares luciferase (Oplophorus gracilirostris, UniProt Q9GV45, A31E/A60N/A81I/F95D/I117V/K70R/L54V/L99Q/M102K/N193R/P142E/Q151K/Q38R/Q45L/V71I/Y165I); experiment: Bioluminescence imaging of transgenic mice for substrate comparison (brain, Cre-driven Antares); assay type: in vivo, mouse
# T1 construct: expressed in transfected cells; host or cells: transgenic mice with CAG-LSL-Antares at the H11 locus, crossed to Cre driver lines (neurons or liver)
# T1 sequence (Q9GV45 other isoform, or with tags, fused parts or gaps with the stated changes): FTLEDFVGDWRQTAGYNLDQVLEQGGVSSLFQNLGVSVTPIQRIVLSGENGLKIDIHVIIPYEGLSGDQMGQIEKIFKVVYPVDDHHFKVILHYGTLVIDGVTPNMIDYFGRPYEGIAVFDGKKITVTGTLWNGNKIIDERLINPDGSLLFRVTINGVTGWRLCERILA
# Source text: Transgenic reporter mice with LSL-CAG-luciferase (Antares, FLuc or AkaLuc) inserted at the H11 locus (H11P) were generated by φC31-mediated recombination in blastocysts[48] by the Stanford Transgenic, Knockout and Tumor Model Center. For substrate comparisons, 2- to 4-month-old transgenic mice doubly hemizygous for a Camk2a-cre (Jackson Laboratory, 005359), Vgat-IRES-cre (Jackson Laboratory), Vglut2-IRES-cre (Jackson Laboratory, 016963) or Alb-cre (Jackson Laboratory, 003574) driver and a CAG-LSL-Antares, CAG-LSL-AkaLuc or CAG-LSL-FLuc reporter were anesthetized by inhalation of isoflurane for 5 min. An electric shaver was used to remove scalp hair in Camk2a-cre, Vglut2-IRES-cre or Vgat-IRES-cre mice or abdominal hair in Alb-cre mice. Nair depilatory cream (Church and Dwight) was then applied to the shaved area for 1 min, and remaining hair was removed with a piece of sterile gauze. The area was then rinsed with DPBS and cleaned with 70% ethanol with a piece of sterile gauze.
# For mice expressing Antares, indicated amounts of Fz were dissolved in 480 µl of a PEG-300-based formulation consisting of 10% glycerol, 10% ethanol, 10% hydroxypropylcyclodextrin and 35% PEG-300 in water, or indicated amounts of lyophilized Fz analogs with P-407 vehicle were reconstituted in 150–500 µl of DPBS buffer. For mice expressing FLuc, indicated amounts of D-luciferin were dissolved in PBS. For mice expressing AkaLuc, 3 μmol (1.0 mg) of AkaLumine-HCl (Sigma-Aldrich) was dissolved in 150 μl of 0.9% NaCl. Substrates were then injected into the peritoneal cavity in the left lower quadrant, with the maximum injectable volume at 480 µl. Immediately after substrate injection, bioluminescent images were acquired in an Ami HT bioluminescence imaging system running Aura software version 3.1 or 4.0 (Spectral Instruments Imaging) for 15–30 min at intervals of 1 min. For comparing substrates at 1.3 µmol, the following imager settings were used: emission filter open, field of view of 25 cm, f-stop of 1.2, binning of 2 × 2 and exposure time of 2 s. For comparison with >1.3-µmol substrates, the following settings were used: emission filter open, field of view of 25 cm, f-stop of 1.2, binning of 1 × 1 and exposure time of 1 s. Pseudocolor images and intensity scale bars were generated with Aura software. Integrated luminescence was quantified using the Fiji version of the ImageJ program (NIH)[49], with further statistical analysis performed in GraphPad Prism (version 9.0.0).
# [1] = In vivo substrate pharmacokinetics (plasma and brain); design: species or system C57BL/6 mice; settings: for concentration at 5 min: male, C57BL/6, mouse, brain, ip, 5 min after i.p. 1.3 µmol, wild-type mice
# Protocol: PK measurements were performed at Shanghai ChemPartner for Fz and compound 6 in 6- to 8-week-old overnight-fasted male C57BL/6 mice. Fz and compound 6 were formulated as clear solutions in 10% ethanol, 10% glycerol, 10% hydroxypropyl-β-cyclodextrin (Sigma-Aldrich), 35% PEG-300 and 35% water. Freshly prepared injectable doses (i.p., 20 mg per kg body weight for Fz and 21.6 mg per kg body weight for compound 6) were administered at 20 ml kg^–1. Each of the two measurement series consisted of four mice and two time points (series 1, predose and 0.083 h; series 2, 0.083 h and 0.167 h).
# At each time point, ~90 µl of blood was collected into a K2EDTA tube via facial vein bleeding. Plasma samples were put on ice and centrifuged to obtain plasma samples (2,000g for 5 min at 4 °C) within 15 min of collection. The plasma samples were stored at –70 °C until analysis. For analysis, 20 µl of plasma sample was added to 20 µl of stabilizer (80:20 (vol:vol) mixture of 200 mg ml^–1 EDTA and 100 mM L-ascorbic acid in water).
# At the terminal point of each series, a midline incision was made in the animal’s scalp, and the skin was retracted. The skull overlying the brain was removed. The whole brain was collected, rinsed with cold saline, dried on filtrate paper, weighed and snap-frozen by placing it into dry ice. No abnormal symptoms were observed during the studies. The brain samples were homogenized with 4 ml of stabilizer (80:20 (vol:vol) mixture of 200 mg ml^–1 EDTA and 100 mM L-ascorbic acid in water) per gram of tissue. The above samples (plasma or brain) were mixed with 120 µl of internal standard (Glipizide, 100 ng ml^–1) in acetonitrile. […] Compound concentrations were quantified using LC–MS/MS detection. […]
# PK parameters were determined by the non-compartmental model of the non-compartmental analysis tool, Pharsight Phoenix WinNonlin 8.2 software. […] When the number of detected time points after Tmax was less than 3, the terminal half-life and the area under the plasma concentration-time curve from zero to infinity were not calculated.
Structure (SMILES),brain signal distribution (Antares luciferase; Antares driven by Camk2a-cre),"brain signal distribution (Antares luciferase; i.p., CAG-LSL-Antares x Vgat-IRES-cre mice)",concentration at 5 min [1] [nM],"brain brightness relative to Fz (Antares luciferase; 1.3 µmol i.p., Antares driven by Vglut2-IRES-cre or Camk2a-cre, listed as CFz)","peak light production in the brain relative to Fz (Antares luciferase; 1.3 μmol i.p., CAG-LSL-Antares x Vgat-IRES-cre)","brain bioluminescence of 4.2 µmol dose relative to 1.3-μmol dose (Antares luciferase; 4.2 µmol CFz with 20 mg P-407, i.p.) [fold]","peak brain signal relative to AkaLuc with AkaLumine (Antares luciferase; Antares with 1.3 µmol CFz vs AkaLuc with 3.0 µmol AkaLumine, i.p., Vgat-cre or Camk2a-cre double hemizygotes, listed as CFz)",kinetics of brain signal relative to AkaLuc–AkaLumine (Antares luciferase; Antares–CFz),signal from the brain relative to D-luciferin with firefly luciferase (Antares luciferase; CFz paired with Antares),"bioavailability from plasma concentrations ([1]; i.p. 1.3 µmol, plasma at 5 and 10 min, vs Fz)"
"O=c1c(Cc2ccco2)nc2c(Cc3ccccc3)[nH]c(-c3ccccc3)cn1-2 [Fz, furimazine, reference compound]",expected forebrain-enriched signal,signal from both the forebrain and hindbrain,1100,–,–,–,–,–,–,–
"O=c1c(Cc2ccco2)nc2c(Cc3ccccc3)[nH]c(-c3cccc(F)c3F)cn1-2 [compound 6, cephalofurimazine]",–,–,1400,at least 2.5 fold,significantly brighter,6.5,matches AkaLuc–AkaLumine/TokeOni in brightness; also recorded: comparable peak signal,rise and decay more quickly,greater than 20 fold,improved bioavailability after i.p. injection

# Reference: article PMC10229426, “An optimized bioluminescent substrate for non-invasive imaging in the brain” (Nature Chemical Biology, 2023)
